Laboratory results reported in ChEMBL document CHEMBL3301458, “MMV Malaria Box hERG screening”.
Calls of active or inactive are those of the source. The rule behind the calls is not given here.

Tests used:
hERG (Kv11.1, KCNH2) [1] = target: T1, hERG (Kv11.1, KCNH2) (Homo sapiens, UniProt Q12809); assay: in vitro
Description: MMV: Malaria Box compounds were tested for inhibition of the human ether a go-go related gene (hERG), Kv11.1 channel, using IonWorks 384-well patch clamp electrophysiology at 1.1uM (3 independent assay plates up to 12 cells per concentration).

hERG (Kv11.1, KCNH2) [2] = target: T1, hERG (Kv11.1, KCNH2); assay: in vitro; remark: listed apart in the source
Description: MMV: Malaria Box compounds were tested for inhibition of the human ether a go-go related gene (hERG), Kv11.1 channel, using IonWorks 384-well patch clamp electrophysiology at 11.1uM (3 independent assay plates up to 12 cells per concentration).

T1 sequence (Q12809 whole entry): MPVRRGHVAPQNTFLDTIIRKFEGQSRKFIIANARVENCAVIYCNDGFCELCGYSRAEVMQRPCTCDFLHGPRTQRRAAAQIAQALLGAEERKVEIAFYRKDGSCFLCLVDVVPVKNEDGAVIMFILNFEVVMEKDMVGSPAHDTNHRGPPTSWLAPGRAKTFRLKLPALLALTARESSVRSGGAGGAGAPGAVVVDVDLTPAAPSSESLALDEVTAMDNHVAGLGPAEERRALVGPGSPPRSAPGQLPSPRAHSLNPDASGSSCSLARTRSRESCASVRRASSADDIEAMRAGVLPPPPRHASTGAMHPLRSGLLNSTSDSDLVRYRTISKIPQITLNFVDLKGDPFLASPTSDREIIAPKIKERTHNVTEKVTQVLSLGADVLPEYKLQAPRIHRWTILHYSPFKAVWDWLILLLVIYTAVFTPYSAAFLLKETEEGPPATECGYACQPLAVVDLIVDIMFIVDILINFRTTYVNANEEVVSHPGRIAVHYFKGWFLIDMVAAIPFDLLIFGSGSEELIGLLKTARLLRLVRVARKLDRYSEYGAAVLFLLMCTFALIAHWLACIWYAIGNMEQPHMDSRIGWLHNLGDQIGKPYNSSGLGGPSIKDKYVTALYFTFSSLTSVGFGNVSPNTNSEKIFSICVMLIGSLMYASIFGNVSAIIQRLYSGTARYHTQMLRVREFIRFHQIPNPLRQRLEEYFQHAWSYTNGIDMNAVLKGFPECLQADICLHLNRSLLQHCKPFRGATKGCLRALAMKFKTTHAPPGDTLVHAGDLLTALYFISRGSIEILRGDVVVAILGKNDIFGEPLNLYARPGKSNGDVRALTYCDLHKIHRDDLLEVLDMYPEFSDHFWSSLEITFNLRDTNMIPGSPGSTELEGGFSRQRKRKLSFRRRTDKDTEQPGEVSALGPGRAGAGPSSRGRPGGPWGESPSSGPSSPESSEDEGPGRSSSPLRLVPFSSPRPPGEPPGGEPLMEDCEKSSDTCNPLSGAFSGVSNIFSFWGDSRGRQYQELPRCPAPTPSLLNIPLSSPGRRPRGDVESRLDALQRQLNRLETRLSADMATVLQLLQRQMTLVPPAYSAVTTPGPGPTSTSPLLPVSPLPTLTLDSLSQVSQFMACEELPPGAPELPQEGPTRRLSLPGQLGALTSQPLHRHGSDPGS

Row | SMILES | inhibition at 1.1 µM (hERG (Kv11.1, KCNH2) [1]) [%] | inhibition at 11.1 µM (hERG (Kv11.1, KCNH2) [2])
1 | COc1ccc(-c2cc3c(nn2)-c2ccccc2C3=O)cc1 | -9 | -7% (inactive)
2 | Cc1ccc(-c2cc3c(nn2)-c2ccccc2C3=O)cc1 | 14 | 50% (active)
3 | O=C1c2ccccc2-c2nnc(-c3ccc(Br)cc3)cc21 | -3 | 2% (inactive)
4 | Oc1ccccc1CN1CCC2(CCCN(Cc3ccccc3F)C2)C1 (configuration not stated) | 1 | 59% (active)
5 | N=c1n(CCN2CCCCC2)c2ccccc2n1CC(O)c1cccc(Br)c1 (configuration not stated) | 18 | 73% (active)
6 | COc1cccc(O)c1CN1CCC2(CCCN(Cc3ccc(F)cc3)C2)C1 (configuration not stated) | 0 | 86% (active)
7 | Cc1ccc(-c2cc(C(=O)Nc3ccc(S(=O)(=O)N4CCCCC4)cc3)[nH]n2)c(O)c1 | -1 | 8% (inactive)
8 | CCOC(=O)C1=C(C)N=c2sc(=Cc3cc(Cl)ccc3O)c(=O)n2C1c1ccc(OC)cc1 (configuration not stated) | 2 | 2% (inactive)
9 | COc1ccc(-c2nc(NC(=O)CS(=O)(=O)c3ccc(F)cc3)sc2C)cc1 | 7 | 69% (active)
10 | COc1cc(C(=O)Nc2ccc(-c3nc4ccccc4[nH]3)cc2)cc(OC)c1OC | -12 | 17% (inactive)
11 | Cc1nc2ccccc2c(O)c1CC=C(Cl)Cl | -1 | -2% (inactive)
12 | FC(F)(F)c1ccc(Nc2nnnc3ccccc23)cc1 | -4 | -2% (inactive)
13 | CCC(C)NCC(O)(c1ccc(Cl)cc1)c1ccc(Cl)cc1 (configuration not stated) | 24 | 89% (active)
14 | Cc1ccc(N2C(=O)C3C(C2=O)C2(c4ccccc4)C(=O)C3(c3ccccc3)C(c3ccccc3)=C2c2ccccc2)cc1 (configuration not stated) | 10 | -3% (inactive)
15 | COc1ccc(CN2CCCC(C(=O)c3ccc(C(F)(F)F)cc3)C2)c(O)c1 (configuration not stated) | 58 | 100%
16 | CCOC(=O)c1cn(CC)c2cc(N(C)CCc3ccc(OC)c(OC)c3)c(F)cc2c1=O | 3 | 34%
17 | O=C(CCl)NCCOc1ccc(Cl)cc1Cl | 1 | 62% (active)
18 | CC(=O)c1ccc(NC(=O)CSc2nc(-c3ccccc3Cl)ns2)cc1 | -6 | 7% (inactive)

Row | SMILES | inhibition at 1.1 µM (hERG (Kv11.1, KCNH2) [1]) [%] | inhibition at 11.1 µM (hERG (Kv11.1, KCNH2) [2])
19 | O=C(NC1CCCCC1)C(c1cccs1)N(CCc1ccccc1)C(=O)c1ccco1 (configuration not stated) | 13 | 53% (active)
20 | COc1ccc(CCN2CCC(CN(C)Cc3cnn(-c4ccccc4)c3)CC2)cc1 | 41 | 99% (active)
21 | COc1ccc(C(=O)NC(c2ccc(Cl)cc2Cl)c2cc(Cl)c3cccnc3c2O)cc1 (configuration not stated) | -3 | -12% (inactive)
22 | O=C(NC(c1ccccc1)c1ccc2cccnc2c1O)c1ccccc1 (configuration not stated) | 1 | 17% (inactive)
23 | COCCNC(=O)c1ccc(OC2CCN(Cc3ccc(F)c(F)c3)CC2)c(Cl)c1 | 7 | 68% (active)
24 | COc1ccc(C2=C(c3ccc(OC)cc3)C3(c4ccccc4)C(=O)C2(c2ccccc2)C2C(=O)N(c4ccc(C)cc4)C(=O)C23)cc1 (configuration not stated) | -8 | 6% (inactive)
25 | O=C(NC1CCCC1)c1ccc(N2CCC(NCc3cccc(C(F)(F)F)c3)CC2)cc1 | 76 | 101%
26 | CC(C)=CCN1CCC(C(=O)Nc2ccc(-c3nc4ccccc4[nH]3)cc2)CC1 | 0 | 29%
27 | O=C(CCc1ccco1)NC1CCN(CC2(c3ccc(Cl)cc3)CCC2)CC1 | 10 | 65% (active)
28 | Nc1ccc(-c2nc3cc(Cc4ccc5[nH]c(-c6ccc(N)cc6)nc5c4)ccc3[nH]2)cc1 | 12 | 21% (inactive)
29 | COc1ccc(CNC2CCN(c3ccc(NC(=O)c4cccc(Cl)c4)cc3)CC2)cc1OC | 84 | 102%
30 | COCCN(C(=O)Cc1cccs1)C(C(=O)NCc1ccc(OC)cc1)c1ccc(C(C)C)cc1 (configuration not stated) | 11 | 52% (active)
31 | N=c1c2ccccc2nnn1-c1cccc(C(F)(F)F)c1 | -3 | 11% (inactive)
32 | Cc1ccc(OCCCCCCNCCO)c(C)c1 | -6 | 21% (inactive)
33 | FC(F)(F)c1cccc(CNC2CCN(CCc3ccccc3)CC2)c1 | 4 | 97% (active)
34 | O=C(c1ccccc1F)N(Cc1ccc(Cl)cc1)c1ccccn1 | 7 | 22% (inactive)
35 | COCCn1c(C)nc2ccccc2c1=O | 3 | 1% (inactive)
36 | O=C(Nc1ccc(CN2CCOCC2)cc1)c1ccc(-c2ccc(Br)cc2)o1 | 42 | 98% (active)
